Values quoted from earlier work, collected in patent US20120016347A1, “Seroma Control for Surgical Patients” (priority 2010, published 2012).

Test system: pleural effusions
Details: Patz (Chest, 1998)

Compound	Success rate in completely or partially controlling pleural effusions
bleomycin	72%
C[C@H]1c2cccc(O)c2C(O)=C2C(=O)[C@]3(O)C(O)=C(C(N)=O)C(=O)[C@@H](N(C)C)[C@@H]3[C@@H](O)[C@@H]21 [doxyclycline, doxycycline]	79%
